# Assay: Solubility analysis in methylen chloride or THF
# Format: physicochemical
# Description: Compound 12 complies with the solubility requirements set by the industry of 1 g substance/6 ml methylen chloride or THF. This compound was scaled up to 35 g. The compound was brought to an HPLC purity of >99.5% by using conventional purification methods, like e.g. recrystallization or column chromatography.
smiles,measurement,value
"Cc1ccc(N(c2ccc(C)cc2)c2ccc(/C=C/c3ccc4c(c3)C(C)(C)c3cc(/C=C/c5ccc(N(c6ccc(C)cc6)c6ccc(C)cc6)cc5)ccc3-4)cc2)cc1 [Compound 12, 2,7-Bis-(4-di-p-tolylaminophenylethenyl)-9,9-dimethyl-9H-fluorene]",solubility (complies with the solubility requirements set by the industry),≥ 1 g substance/6 ml

# Source: patent US8629300B2, “Arylamine-substituted divinyl fluorenes and their use for electrophotographic applications, and for OLEDs (organic light emitting devices)” (Sensient Imaging Technologies GmbH, priority 2006, dated 2014)
